From paper PMC12196264, “Design and Synthesis of Pyridine-Based Pyrrolo[2,3-d]pyrimidine Analogs as CSF1R Inhibitors: Molecular Hybridization and Scaffold Hopping Approach” (Pharmaceuticals, 2025)

What was measured:
[1] = biological target: DYRK1A (Homo sapiens, UniProt Q13627); experiment: Kinase panel; type: biochemical
Procedure: (§1) Ta b l e S 1. Inhibition (%) by compound 14c towards di7erent kinases. Values are average of two
(§2) measurements at 1000 nM test concentration. The ATP concentration was equal to KM.
(§3) Kinase ATP conc. % inhibition

[2] = biological target: LTK (Homo sapiens, UniProt P29376); experiment: Kinase panel; type: biochemical
Procedure: as §1, §2, §3

[3] = biological target: ROCK1 (Homo sapiens, UniProt Q13464); experiment: Kinase panel; type: biochemical
Procedure: as §1, §2, §3

[4] = biological target: FLT1 (Homo sapiens, UniProt P17948); experiment: Kinase panel; type: biochemical
Procedure: as §1, §2, §3

[5] = biological target: PAK1 (Homo sapiens, UniProt Q13153); experiment: Kinase panel; type: biochemical
Procedure: as §1, §2, §3

[6] = biological target: ABL2 (Homo sapiens, UniProt P42684); experiment: Kinase panel; type: biochemical
Procedure: as §1, §2, §3

[7] = biological target: RET (Homo sapiens, UniProt P07949); experiment: Kinase panel; type: biochemical
Procedure: as §1, §2, §3

[8] = biological target: BLK (Homo sapiens, UniProt P51451); experiment: Kinase panel; type: biochemical
Procedure: as §1, §2, §3

[9] = biological target: MKNK1 (Homo sapiens, UniProt Q9BUB5); experiment: Kinase panel; type: biochemical
Procedure: as §1, §2, §3

[10] = biological target: CHEK1 (Homo sapiens, UniProt O14757); experiment: Kinase panel; type: biochemical
Procedure: as §1, §2, §3

[11] = biological target: CAMK1D (Homo sapiens, UniProt Q8IU85); experiment: Kinase panel; type: biochemical
Procedure: as §1, §2, §3

[12] = biological target: MET (Homo sapiens, UniProt P08581); experiment: Kinase panel; type: biochemical
Procedure: as §1, §2, §3

[13] = biological target: AXL (Homo sapiens, UniProt P30530); experiment: Kinase panel; type: biochemical
Procedure: as §1, §2, §3

[14] = biological target: FER (Homo sapiens, UniProt P16591); experiment: Kinase panel; type: biochemical
Procedure: as §1, §2, §3

[15] = biological target: FGFR1 (Homo sapiens, UniProt P11362); experiment: Kinase panel; type: biochemical
Procedure: as §1, §2, §3

[16] = biological target: JAK1 (Homo sapiens, UniProt P23458); experiment: Kinase panel; type: biochemical
Procedure: as §1, §2, §3

[17] = biological target: EPHA2 (Homo sapiens, UniProt P29317); experiment: Kinase panel; type: biochemical
Procedure: as §1, §2, §3

[18] = biological target: LYN A (Homo sapiens, UniProt P07948); experiment: Kinase panel; type: biochemical
Procedure: as §1, §2, §3

[19] = biological target: MINK1 (Homo sapiens, UniProt Q8N4C8); experiment: Kinase panel; type: biochemical
Procedure: as §1, §2, §3

[20] = biological target: FRAP1 (Homo sapiens, UniProt P42345); experiment: Kinase panel; type: biochemical
Procedure: as §1, §2, §3

[21] = biological target: FLT4 (Homo sapiens, UniProt P35916); experiment: Kinase panel; type: biochemical
Procedure: as §1, §2, §3

[22] = biological target: PDGFRB (Homo sapiens, UniProt P09619); experiment: Kinase panel; type: biochemical; conditions: 1000 nM test concentration, ATP Km app, average of two measurements
Procedure: as §1, §2, §3

[23] = biological target: MUSK (Homo sapiens, UniProt O15146); experiment: Kinase panel; type: biochemical
Procedure: as §1, §2, §3

[24] = biological target: EGFR (Homo sapiens, UniProt P00533); experiment: Kinase panel; type: biochemical
Procedure: as §1, §2, §3

[25] = biological target: ABL1 (Homo sapiens, UniProt P00519); experiment: Kinase panel; type: biochemical
Procedure: as §1, §2, §3

[26] = biological target: CLK1 (Homo sapiens, UniProt P49759); experiment: Kinase panel; type: biochemical
Procedure: as §1, §2, §3

[27] = biological target: PLK1 (Homo sapiens, UniProt P53350); experiment: Kinase panel; type: biochemical
Procedure: as §1, §2, §3

[28] = biological target: HCK (Homo sapiens, UniProt P08631); experiment: Kinase panel; type: biochemical
Procedure: as §1, §2, §3

[29] = biological target: GSK3B (Homo sapiens, UniProt P49841); experiment: Kinase panel; type: biochemical
Procedure: as §1, §2, §3

[30] = biological target: Aurora A (Homo sapiens, UniProt O14965); experiment: Kinase panel; type: biochemical
Procedure: as §1, §2, §3

[31] = biological target: T1, CSF1R (Homo sapiens, UniProt P07333); experiment: Kinase panel; type: biochemical
Procedure: as §1, §2, §3

[32] = biological target: T1, CSF1R; experiment: CSF1R enzymatic inhibitory assay (TR-FRET LANCE Ultra); type: biochemical; conditions: single eight-point titrations, ATP 25 μM, R^2 of fit in parentheses
Procedure: The TR-FRET-based LANCE Ultra assay (Perkin Elmer, Waltham, MA, USA) was used to determine IC50 values for various CSF1R inhibitors. Kinase activity and inhibition in this assay was measured as previously reported. Scigilian Analyze software version 5.8.5.15 (Scigilian, Montreal, QC, Canada) was used.

[33] = Microsomal stability, human liver microsomes; type: in vitro ADME; conditions: human liver microsome
Procedure: The aqueous solubility of the compounds and metabolic stability under oxidative conditions was performed as described previously.

[34] = MDCK permeability assay; type: in vitro ADME, canine; conditions: dog, MDCK monolayer
Procedure: Six selected compounds were assessed for metabolic stability (clearance) in mouse liver microsomes (MLM) and human liver microsomes (HLM), and apparent permeability (Papp) using a MDCK permeability assay. […] Although currently limited by solubility and permeability, its metabolic profile provides a starting point for targeted structural modifications aimed at overcoming these challenges.

[35] = system: Ba/F3 cells engineered to be dependent on CSF1R but added additional IL-3; experiment: Cell viability assay with Ba/F3-hCSF1R cells with added IL-3; type: cell-based; conditions: Mus musculus, BaF3; Ba/F3 CSF1R cells with additional IL-3; read-out: Cellular Assay IC50 (μM), Ba/F3 IL-3
Procedure: Given the promising enzymatic activity of the synthesized derivatives, cellular assays were performed using Ba/F3 cells engineered to depend on constitutively active CSF1R. […] We have also previously observed a low correlation between enzymatic and cellular activities, which may arise from the enzymatic protein construct not accurately mimicking the active conformation of CSF1R in a cellular context.
Performed as reported previously.

Chain of PDGFRB (P09619 33-1106, species assumed): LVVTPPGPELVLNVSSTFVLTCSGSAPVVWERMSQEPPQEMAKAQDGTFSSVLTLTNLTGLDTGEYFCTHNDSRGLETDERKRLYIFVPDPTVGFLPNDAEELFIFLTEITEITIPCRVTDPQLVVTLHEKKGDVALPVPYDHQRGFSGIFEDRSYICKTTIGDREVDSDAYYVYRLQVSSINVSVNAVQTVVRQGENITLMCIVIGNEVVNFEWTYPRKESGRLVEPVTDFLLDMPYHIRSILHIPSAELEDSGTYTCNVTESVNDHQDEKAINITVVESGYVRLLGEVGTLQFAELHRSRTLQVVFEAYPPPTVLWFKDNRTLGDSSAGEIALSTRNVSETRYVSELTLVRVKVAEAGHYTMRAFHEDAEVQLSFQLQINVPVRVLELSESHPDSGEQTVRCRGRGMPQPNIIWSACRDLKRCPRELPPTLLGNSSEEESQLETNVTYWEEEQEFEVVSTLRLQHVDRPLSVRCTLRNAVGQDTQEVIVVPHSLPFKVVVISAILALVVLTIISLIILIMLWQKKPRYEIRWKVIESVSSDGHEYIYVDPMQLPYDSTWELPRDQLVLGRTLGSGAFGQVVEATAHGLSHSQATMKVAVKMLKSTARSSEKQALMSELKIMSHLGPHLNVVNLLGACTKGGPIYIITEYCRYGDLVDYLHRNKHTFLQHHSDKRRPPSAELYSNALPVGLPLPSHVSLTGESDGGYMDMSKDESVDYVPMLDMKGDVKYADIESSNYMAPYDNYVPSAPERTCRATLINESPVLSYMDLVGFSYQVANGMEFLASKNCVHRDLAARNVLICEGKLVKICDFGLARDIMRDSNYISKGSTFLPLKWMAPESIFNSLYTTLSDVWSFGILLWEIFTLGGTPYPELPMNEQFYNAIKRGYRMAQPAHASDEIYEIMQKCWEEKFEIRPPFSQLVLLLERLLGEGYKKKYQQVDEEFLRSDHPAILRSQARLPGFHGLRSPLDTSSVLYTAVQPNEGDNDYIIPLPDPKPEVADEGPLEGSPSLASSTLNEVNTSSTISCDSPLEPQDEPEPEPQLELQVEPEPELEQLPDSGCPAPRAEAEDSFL
T1 sequence (P07333 20-972): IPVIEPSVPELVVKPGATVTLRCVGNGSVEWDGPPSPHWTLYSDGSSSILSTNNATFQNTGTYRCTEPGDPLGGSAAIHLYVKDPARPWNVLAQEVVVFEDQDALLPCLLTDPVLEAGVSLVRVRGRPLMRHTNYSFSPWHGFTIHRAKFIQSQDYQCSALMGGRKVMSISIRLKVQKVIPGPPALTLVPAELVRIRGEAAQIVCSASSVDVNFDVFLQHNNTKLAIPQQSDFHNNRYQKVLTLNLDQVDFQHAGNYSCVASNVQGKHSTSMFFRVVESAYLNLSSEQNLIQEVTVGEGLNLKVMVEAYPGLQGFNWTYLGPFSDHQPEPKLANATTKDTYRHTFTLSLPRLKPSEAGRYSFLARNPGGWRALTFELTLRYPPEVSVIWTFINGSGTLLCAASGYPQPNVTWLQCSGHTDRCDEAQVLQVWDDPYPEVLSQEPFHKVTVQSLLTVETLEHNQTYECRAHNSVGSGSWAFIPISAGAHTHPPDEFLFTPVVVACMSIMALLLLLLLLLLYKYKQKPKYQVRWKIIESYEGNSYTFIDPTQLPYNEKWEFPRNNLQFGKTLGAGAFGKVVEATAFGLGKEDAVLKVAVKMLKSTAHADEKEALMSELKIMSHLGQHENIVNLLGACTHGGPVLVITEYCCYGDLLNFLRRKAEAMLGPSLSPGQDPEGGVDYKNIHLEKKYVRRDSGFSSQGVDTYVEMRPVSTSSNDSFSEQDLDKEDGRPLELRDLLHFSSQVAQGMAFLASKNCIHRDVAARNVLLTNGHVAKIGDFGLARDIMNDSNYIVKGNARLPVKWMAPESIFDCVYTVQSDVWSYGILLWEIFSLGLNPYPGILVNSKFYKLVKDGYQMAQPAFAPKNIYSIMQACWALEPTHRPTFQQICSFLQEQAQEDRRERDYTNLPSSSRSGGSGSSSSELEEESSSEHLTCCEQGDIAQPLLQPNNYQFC
Chain of MKNK1 (Q9BUB5 whole entry, species assumed): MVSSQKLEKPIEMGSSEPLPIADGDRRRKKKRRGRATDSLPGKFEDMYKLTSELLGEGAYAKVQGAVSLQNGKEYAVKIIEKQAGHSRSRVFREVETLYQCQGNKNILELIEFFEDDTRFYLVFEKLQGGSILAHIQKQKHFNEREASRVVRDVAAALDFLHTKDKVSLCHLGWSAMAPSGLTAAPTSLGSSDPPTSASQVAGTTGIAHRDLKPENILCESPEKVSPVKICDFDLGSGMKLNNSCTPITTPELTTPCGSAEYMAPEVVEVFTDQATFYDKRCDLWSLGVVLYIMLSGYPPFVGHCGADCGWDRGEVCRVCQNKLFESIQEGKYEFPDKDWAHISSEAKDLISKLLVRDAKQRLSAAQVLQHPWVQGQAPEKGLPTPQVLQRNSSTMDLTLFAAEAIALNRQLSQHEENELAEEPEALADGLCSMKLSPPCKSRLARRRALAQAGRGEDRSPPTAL
Chain of BLK (P51451 whole entry, species assumed): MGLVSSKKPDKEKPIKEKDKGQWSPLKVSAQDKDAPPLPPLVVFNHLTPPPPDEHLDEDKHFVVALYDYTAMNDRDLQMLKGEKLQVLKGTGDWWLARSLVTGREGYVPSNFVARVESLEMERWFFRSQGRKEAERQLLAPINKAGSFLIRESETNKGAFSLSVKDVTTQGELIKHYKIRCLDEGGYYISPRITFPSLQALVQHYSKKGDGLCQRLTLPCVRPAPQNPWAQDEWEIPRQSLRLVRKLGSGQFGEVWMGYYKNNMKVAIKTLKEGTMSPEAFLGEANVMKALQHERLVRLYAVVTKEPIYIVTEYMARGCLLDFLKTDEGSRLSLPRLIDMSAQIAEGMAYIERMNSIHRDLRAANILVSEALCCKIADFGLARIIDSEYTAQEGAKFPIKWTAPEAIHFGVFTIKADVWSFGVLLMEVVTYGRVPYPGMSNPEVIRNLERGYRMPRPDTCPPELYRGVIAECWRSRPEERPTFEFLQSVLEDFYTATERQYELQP
Chain of HCK (P08631 whole entry, species assumed): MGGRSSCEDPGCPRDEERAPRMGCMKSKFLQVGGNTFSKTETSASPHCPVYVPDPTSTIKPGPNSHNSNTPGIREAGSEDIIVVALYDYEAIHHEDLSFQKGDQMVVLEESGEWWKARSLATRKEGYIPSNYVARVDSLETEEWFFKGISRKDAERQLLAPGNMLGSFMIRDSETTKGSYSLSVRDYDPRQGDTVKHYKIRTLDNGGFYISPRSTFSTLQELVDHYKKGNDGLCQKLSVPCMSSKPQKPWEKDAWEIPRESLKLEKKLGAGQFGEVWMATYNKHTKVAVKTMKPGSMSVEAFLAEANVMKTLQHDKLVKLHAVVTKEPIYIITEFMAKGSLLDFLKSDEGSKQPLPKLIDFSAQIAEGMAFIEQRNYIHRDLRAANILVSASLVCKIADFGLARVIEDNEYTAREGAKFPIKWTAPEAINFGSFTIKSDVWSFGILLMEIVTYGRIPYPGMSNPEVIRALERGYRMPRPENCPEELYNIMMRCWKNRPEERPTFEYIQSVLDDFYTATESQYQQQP
Chain of FGFR1 (P11362 22-822, species assumed): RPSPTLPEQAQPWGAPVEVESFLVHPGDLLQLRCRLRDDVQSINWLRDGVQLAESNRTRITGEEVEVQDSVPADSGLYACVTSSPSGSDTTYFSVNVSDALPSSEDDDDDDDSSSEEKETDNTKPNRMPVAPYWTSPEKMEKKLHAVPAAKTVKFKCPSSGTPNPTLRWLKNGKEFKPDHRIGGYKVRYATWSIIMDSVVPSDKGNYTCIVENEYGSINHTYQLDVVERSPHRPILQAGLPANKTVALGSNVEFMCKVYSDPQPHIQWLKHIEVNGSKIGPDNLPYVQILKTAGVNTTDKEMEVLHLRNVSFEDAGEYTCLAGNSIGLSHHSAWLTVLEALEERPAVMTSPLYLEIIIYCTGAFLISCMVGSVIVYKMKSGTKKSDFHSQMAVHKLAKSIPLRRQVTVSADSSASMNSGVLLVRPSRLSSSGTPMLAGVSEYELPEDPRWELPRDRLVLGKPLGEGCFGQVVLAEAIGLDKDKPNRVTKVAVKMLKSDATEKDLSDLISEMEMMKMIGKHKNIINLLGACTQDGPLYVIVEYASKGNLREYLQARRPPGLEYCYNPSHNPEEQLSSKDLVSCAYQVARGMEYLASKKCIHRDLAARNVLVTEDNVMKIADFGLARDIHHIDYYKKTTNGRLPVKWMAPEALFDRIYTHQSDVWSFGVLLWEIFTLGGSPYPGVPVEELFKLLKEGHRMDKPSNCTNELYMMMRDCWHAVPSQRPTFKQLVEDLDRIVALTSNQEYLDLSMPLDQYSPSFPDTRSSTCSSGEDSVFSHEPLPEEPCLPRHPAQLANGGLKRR
Chain of CHEK1 (O14757 whole entry, species assumed): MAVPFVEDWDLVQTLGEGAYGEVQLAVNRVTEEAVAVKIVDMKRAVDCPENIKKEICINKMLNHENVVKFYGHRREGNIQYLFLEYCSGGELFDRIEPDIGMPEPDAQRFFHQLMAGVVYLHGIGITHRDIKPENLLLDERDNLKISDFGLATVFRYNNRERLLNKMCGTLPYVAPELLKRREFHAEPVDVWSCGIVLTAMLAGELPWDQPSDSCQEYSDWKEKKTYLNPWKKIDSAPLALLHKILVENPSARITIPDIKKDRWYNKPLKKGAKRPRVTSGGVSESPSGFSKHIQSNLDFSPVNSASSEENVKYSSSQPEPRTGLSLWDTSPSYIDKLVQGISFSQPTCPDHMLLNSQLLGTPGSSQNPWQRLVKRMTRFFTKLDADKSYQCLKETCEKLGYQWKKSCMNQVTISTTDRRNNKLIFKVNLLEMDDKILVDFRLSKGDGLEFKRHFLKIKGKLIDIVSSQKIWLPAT

Q: For `Cc1cccc(CN(C)c2ncnc3[nH]c(-c4ccc(NCc5ccc(C(F)(F)F)nc5)nc4)cc23)c1` [Compound 14c, N-Methyl-N-(3-methylbenzyl)-6-(6-(((6-(trifluoromethyl)pyridin-3-yl)methyl)amino)pyridin-3-yl)-7H-pyrrolo[2,3-d]pyrimidin-4-amine], which inhibition at 1 µM [1] is on record?
A: 4%

Q: And the inhibition at 1 µM [2]?
A: 15%

Q: And the inhibition at 1 µM [3]?
A: -1%

Q: And the inhibition at 1 µM [4]?
A: 5%

Q: And the inhibition at 1 µM [5]?
A: 9%

Q: And the inhibition at 1 µM [6]?
A: 75%

Q: What about the inhibition at 1 µM [7] of the same compound?
A: 14%

Q: What about the inhibition at 1 µM [8] of the same compound?
A: 19%

Q: And the inhibition at 1 µM [9]?
A: 1%

Q: And the inhibition at 1 µM [10]?
A: 11%

Q: And the inhibition at 1 µM [11]?
A: 8%

Q: And the inhibition at 1 µM [12]?
A: 10%

Q: And the inhibition at 1 µM [13]?
A: 4%

Q: What about the inhibition at 1 µM [14] of the same compound?
A: 6%

Q: And the inhibition at 1 µM [15]?
A: 3%

Q: And the inhibition at 1 µM [16]?
A: -5%

Q: And the inhibition at 1 µM [17]?
A: 23%

Q: And the inhibition at 1 µM [18]?
A: 18%

Q: What about the inhibition at 1 µM [19] of the same compound?
A: 69%

Q: And the inhibition at 1 µM [20]?
A: -5%

Q: And the inhibition at 1 µM [21]?
A: 2%

Q: What about the inhibition at 1 µM [22] of the same compound?
A: 9%

Q: What about the “% inhibition PDGFRB” value ([22]; 1 µM) of the same compound?
A: 8%

Q: And the inhibition at 1 µM [23]?
A: 19%

Q: What about the inhibition at 1 µM [24] of the same compound?
A: 57%

Q: What about the inhibition at 1 µM [25] of the same compound?
A: 71%

Q: And the inhibition at 1 µM [26]?
A: 3%

Q: And the inhibition at 1 µM [27]?
A: 7%

Q: What about the inhibition at 1 µM [28] of the same compound?
A: 16%

Q: What about the inhibition at 1 µM [29] of the same compound?
A: 11%

Q: And the inhibition at 1 µM [30]?
A: 7%

Q: And the inhibition at 1 µM [31]?
A: 95%

Q: And the IC50 [32]?
A: 7.18 nM

Q: What about the “HLM in vitro intrinsic clearing” value [33] of the same compound?
A: 77 µL/min/mg

Q: What about the Papp A→B ([34]; A–B direction) of the same compound?
A: 5.4 ×10⁻⁶ cm/s

Q: And the Papp B→A ([34]; B–A direction)?
A: 0.8 ×10⁻⁶ cm/s

Q: And the efflux ratio ([34]; read-out: MDCK Ratio (Papp B–A/A–B))?
A: 0.14

Q: And the IC50 [35]?
A: > 10 µM
